Test results published in patent US12522607B2, “Substituted pyrazolo[3,4-d]pyrimidines as wee-1 inhibitors” (WIGEN BIOMEDICINE TECHNOLOGY (SHANGHAI) CO., LTD., priority 2020, dated 2026).

Legend:
[1] = test system: HT29 cells; test: Antiproliferative activity against HT29 cells (Cell Titer-Lumi, ATP content); assay type: cell-based; conditions: Homo sapiens, HT-29, 72 after compound addition, read-out: HT-29 cells Anti-proliferative activity (IC50 for the inhibition against HT-29 cell growth)
Method in brief: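 3000 cells per well, allowed to adhere overnight, then exposed to a gradient dilution of compound for 72 (units as printed). Cellular ATP read by luminescence (Cell Titer-Lumi) as a growth measure; IC50 for growth inhibition calculated.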

[2] = molecular target: T1, Wee-1 kinase (Homo sapiens, UniProt P30291); test: Inhibitory activity against Wee-1 kinase (Lanthra Screen Wee-1 kinase kit, Tracer 178); assay type: binding; conditions: Wee-1 kinase 5 nM, Tracer 178 50 nM, 1 h room temperature
T1 construct: purchased Invitrogen
T1 sequence (P30291 whole entry): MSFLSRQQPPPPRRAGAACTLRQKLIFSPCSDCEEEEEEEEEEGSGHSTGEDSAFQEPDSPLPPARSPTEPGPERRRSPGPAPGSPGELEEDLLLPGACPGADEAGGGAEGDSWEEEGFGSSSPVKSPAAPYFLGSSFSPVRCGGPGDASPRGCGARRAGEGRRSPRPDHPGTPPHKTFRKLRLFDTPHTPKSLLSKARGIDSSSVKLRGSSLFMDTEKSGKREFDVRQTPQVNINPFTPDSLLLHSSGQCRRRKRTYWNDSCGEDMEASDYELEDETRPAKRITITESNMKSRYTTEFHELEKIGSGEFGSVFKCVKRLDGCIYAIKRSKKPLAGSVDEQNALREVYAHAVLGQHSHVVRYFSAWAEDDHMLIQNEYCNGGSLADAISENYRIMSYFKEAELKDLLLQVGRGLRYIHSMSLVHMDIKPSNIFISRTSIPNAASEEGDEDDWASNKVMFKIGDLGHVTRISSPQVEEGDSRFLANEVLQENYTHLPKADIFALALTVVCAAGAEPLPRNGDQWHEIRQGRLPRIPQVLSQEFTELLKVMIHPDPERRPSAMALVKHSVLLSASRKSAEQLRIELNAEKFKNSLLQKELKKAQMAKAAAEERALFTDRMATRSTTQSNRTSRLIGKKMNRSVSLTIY
Method in brief: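 LanthaScreen binding format: Wee-1 kinase (5 nM final) with Eu-anti-GST antibody (2 nM final) and kinase Tracer 178 (50 nM final), compounds serially diluted in DMSO. 1 h at room temperature before reading. IC50 relative to DMSO control.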

Structure (SMILES)	IC50 [1] [nM]	IC50 [2] [nM]
C=CCn1c(=O)c2cnc(Nc3ccc4c(C5CCN(C)CC5)c[nH]c4c3)nc2n1-c1ccc(=O)n(C(C)C)n1 [Compound 267]	≤ 1000	≤ 30
C=CCn1c(=O)c2cnc(Nc3ccc4c(C5CCN(C(C)C)CC5)cn(C)c4c3)nc2n1-c1ccc(=O)n(C(C)C)n1 [Compound 268]	≤ 1000	≤ 30
C=CCn1c(=O)c2cnc(Nc3ccc4c(ccn4C4CCNCC4)c3)nc2n1-c1ccc(=O)n(C(C)C)n1 [Compound 269]	≤ 1000	≤ 30
C=CCn1c(=O)c2cnc(Nc3ccc4c(ccn4C4CCN(C)CC4)c3)nc2n1-c1ccc(=O)n(C(C)C)n1 [Compound 270]	≤ 1000	≤ 30
C=CCn1c(=O)c2cnc(Nc3ccc4c(ccn4C4CCN(C(C)C)CC4)c3)nc2n1-c1ccc(=O)n(C(C)C)n1 [Compound 271]	≤ 1000	≤ 30
Cc1cc(Nc2ncc3c(=O)n(C4CC4)n(-c4ccc(=O)n(C(C)C)n4)c3n2)ccc1N1CCN(C)CC1 [Compound 272]	≤ 1000	≤ 30
Cc1cc(Nc2ncc3c(=O)n(C4CC4)n(-c4ccc(=O)n(C(C)C)n4)c3n2)ccc1C1CCN(C)CC1 [Compound 273]	≤ 1000	≤ 30
CC(C)n1nc(-n2c3nc(Nc4ccc5c(c4)CN(C)CC54CC4)ncc3c(=O)n2C2CC2)ccc1=O [Compound 274]	≤ 1000	≤ 30
CCn1c(=O)c2cnc(Nc3ccc(N4CCN(C)CC4)c(C)c3)nc2n1-c1ccc(=O)n(C(C)C)n1 [Compound 275]	≤ 1000	≤ 30
CCn1c(=O)c2cnc(Nc3ccc(C4CCN(C)CC4)c(C)c3)nc2n1-c1ccc(=O)n(C(C)C)n1 [Compound 276]	≤ 1000	≤ 30
CCn1c(=O)c2cnc(Nc3ccc4c(c3)CN(C)CC43CC3)nc2n1-c1ccc(=O)n(C(C)C)n1 [Compound 277]	≤ 1000	≤ 30
Cc1cc(Nc2ncc3c(=O)n(C(C)C)n(-c4ccc(=O)n(C(C)C)n4)c3n2)ccc1N1CCN(C)CC1 [Compound 278]	≤ 1000	≤ 30
Cc1cc(Nc2ncc3c(=O)n(C(C)C)n(-c4ccc(=O)n(C(C)C)n4)c3n2)ccc1C1CCN(C)CC1 [Compound 279]	≤ 1000	≤ 30
CC(C)n1nc(-n2c3nc(Nc4ccc5c(c4)CN(C)CC54CC4)ncc3c(=O)n2C(C)C)ccc1=O [Compound 280]	≤ 1000	≤ 30
C=CCn1c(=O)c2cnc(Nc3ccc(N4CCN(C)CC4)c(C)c3)nc2n1-c1ccc(=O)n(C(C)(C)C)n1 [Compound 281]	≤ 1000	≤ 30
C=CCn1c(=O)c2cnc(Nc3ccc(C4CCN(C)CC4)c(C)c3)nc2n1-c1ccc(=O)n(C(C)(C)C)n1 [Compound 282]	≤ 1000	≤ 30
C=CCn1c(=O)c2cnc(Nc3ccc4c(c3)CN(C)CC43CC3)nc2n1-c1ccc(=O)n(C(C)(C)C)n1 [Compound 283]	≤ 1000	≤ 30
CCn1c(=O)c2cnc(Nc3ccc(N4CCN(C)CC4)cc3)nc2n1-c1ccc(=O)n(C(C)(C)C)n1 [Compound 284]	≤ 1000	≤ 30
CCn1c(=O)c2cnc(Nc3ccc(N4CCN(C)CC4)c(C)c3)nc2n1-c1ccc(=O)n(C(C)(C)C)n1 [Compound 285]	≤ 1000	≤ 30
CCn1c(=O)c2cnc(Nc3ccc(C4CCN(C)CC4)c(C)c3)nc2n1-c1ccc(=O)n(C(C)(C)C)n1 [Compound 286]	≤ 1000	≤ 30
CCn1c(=O)c2cnc(Nc3ccc4c(c3)CN(C)CC43CC3)nc2n1-c1ccc(=O)n(C(C)(C)C)n1 [Compound 287]	≤ 1000	≤ 30
CC(C)n1c(=O)c2cnc(Nc3ccc(N4CCN(C)CC4)cc3)nc2n1-c1ccc(=O)n(C(C)(C)C)n1 [Compound 288]	≤ 1000	≤ 30
Cc1cc(Nc2ncc3c(=O)n(C(C)C)n(-c4ccc(=O)n(C(C)(C)C)n4)c3n2)ccc1N1CCN(C)CC1 [Compound 289]	≤ 1000	≤ 30
Cc1cc(Nc2ncc3c(=O)n(C(C)C)n(-c4ccc(=O)n(C(C)(C)C)n4)c3n2)ccc1C1CCN(C)CC1 [Compound 290]	≤ 1000	≤ 30
CC(C)n1c(=O)c2cnc(Nc3ccc4c(c3)CN(C)CC43CC3)nc2n1-c1ccc(=O)n(C(C)(C)C)n1 [Compound 291]	≤ 1000	≤ 30
CN1CCN(c2ccc(Nc3ncc4c(=O)n(C5CC5)n(-c5ccc(=O)n(C(C)(C)C)n5)c4n3)cc2)CC1 [Compound 292]	≤ 1000	≤ 30
Cc1cc(Nc2ncc3c(=O)n(C4CC4)n(-c4ccc(=O)n(C(C)(C)C)n4)c3n2)ccc1N1CCN(C)CC1 [Compound 293]	≤ 1000	≤ 30
Cc1cc(Nc2ncc3c(=O)n(C4CC4)n(-c4ccc(=O)n(C(C)(C)C)n4)c3n2)ccc1C1CCN(C)CC1 [Compound 294]	≤ 1000	≤ 30

Structure (SMILES)	IC50 [1] [nM]	IC50 [2] [nM]
CN1Cc2cc(Nc3ncc4c(=O)n(C5CC5)n(-c5ccc(=O)n(C(C)(C)C)n5)c4n3)ccc2C2(CC2)C1 [Compound 295]	≤ 1000	≤ 30
C=CCn1c(=O)c2cnc(Nc3ccc(N4CCN(C)CC4)c(C)c3)nc2n1-c1ccc(=O)n(C(C)C)c1 [Compound 296]	≤ 1000	≤ 30
C=CCn1c(=O)c2cnc(Nc3ccc(C4CCN(C)CC4)c(C)c3)nc2n1-c1ccc(=O)n(C(C)C)c1 [Compound 297]	≤ 1000	≤ 30
C=CCn1c(=O)c2cnc(Nc3ccc4c(c3)CN(C)CC43CC3)nc2n1-c1ccc(=O)n(C(C)C)c1 [Compound 298]	≤ 1000	≤ 30
CCn1c(=O)c2cnc(Nc3ccc(N4CCN(C)CC4)cc3)nc2n1-c1ccc(=O)n(C(C)C)c1 [Compound 299]	≤ 1000	≤ 30
CCn1c(=O)c2cnc(Nc3ccc(N4CCN(C)CC4)c(C)c3)nc2n1-c1ccc(=O)n(C(C)C)c1 [Compound 300]	≤ 1000	≤ 30
CCn1c(=O)c2cnc(Nc3ccc(C4CCN(C)CC4)c(C)c3)nc2n1-c1ccc(=O)n(C(C)C)c1 [Compound 301]	≤ 1000	≤ 30
CCn1c(=O)c2cnc(Nc3ccc4c(c3)CN(C)CC43CC3)nc2n1-c1ccc(=O)n(C(C)C)c1 [Compound 302]	≤ 1000	≤ 30
CC(C)n1cc(-n2c3nc(Nc4ccc(N5CCN(C)CC5)cc4)ncc3c(=O)n2C(C)C)ccc1=O [Compound 303]	≤ 1000	≤ 30
Cc1cc(Nc2ncc3c(=O)n(C(C)C)n(-c4ccc(=O)n(C(C)C)c4)c3n2)ccc1N1CCN(C)CC1 [Compound 304]	≤ 1000	≤ 30
Cc1cc(Nc2ncc3c(=O)n(C(C)C)n(-c4ccc(=O)n(C(C)C)c4)c3n2)ccc1C1CCN(C)CC1 [Compound 305]	≤ 1000	≤ 30
CC(C)n1cc(-n2c3nc(Nc4ccc5c(c4)CN(C)CC54CC4)ncc3c(=O)n2C(C)C)ccc1=O [Compound 306]	≤ 1000	≤ 30
CC(C)n1cc(-n2c3nc(Nc4ccc(N5CCN(C)CC5)cc4)ncc3c(=O)n2C2CC2)ccc1=O [Compound 307]	≤ 1000	≤ 30
Cc1cc(Nc2ncc3c(=O)n(C4CC4)n(-c4ccc(=O)n(C(C)C)c4)c3n2)ccc1N1CCN(C)CC1 [Compound 308]	≤ 1000	≤ 30
Cc1cc(Nc2ncc3c(=O)n(C4CC4)n(-c4ccc(=O)n(C(C)C)c4)c3n2)ccc1C1CCN(C)CC1 [Compound 309]	≤ 1000	≤ 30
CC(C)n1cc(-n2c3nc(Nc4ccc5c(c4)CN(C)CC54CC4)ncc3c(=O)n2C2CC2)ccc1=O [Compound 310]	≤ 1000	≤ 30
C=CCn1c(=O)c2cnc(Nc3ccc(N4CCN(C)CC4)c(OC)c3)nc2n1-c1cc(F)c(=O)n(C(C)C)c1 [Compound 311]	≤ 1000	≤ 30
C=CCn1c(=O)c2cnc(Nc3ccc(N4CCN(C)CC4)c(C)c3)nc2n1-c1cc(F)c(=O)n(C(C)C)c1 [Compound 312]	≤ 1000	≤ 30
C=CCn1c(=O)c2cnc(Nc3ccc(C4CCN(C)CC4)c(C)c3)nc2n1-c1cc(F)c(=O)n(C(C)C)c1 [Compound 313]	≤ 1000	≤ 30
C=CCn1c(=O)c2cnc(Nc3ccc4c(c3)CN(C)CC43CC3)nc2n1-c1cc(F)c(=O)n(C(C)C)c1 [Compound 314]	≤ 1000	≤ 30
CCn1c(=O)c2cnc(Nc3ccc(N4CCN(C)CC4)cc3)nc2n1-c1cc(F)c(=O)n(C(C)C)c1 [Compound 315]	≤ 1000	≤ 30
CCn1c(=O)c2cnc(Nc3ccc(N4CCN(C)CC4)c(C)c3)nc2n1-c1cc(F)c(=O)n(C(C)C)c1 [Compound 316]	≤ 1000	≤ 30
CCn1c(=O)c2cnc(Nc3ccc(C4CCN(C)CC4)c(C)c3)nc2n1-c1cc(F)c(=O)n(C(C)C)c1 [Compound 317]	≤ 1000	≤ 30
CCn1c(=O)c2cnc(Nc3ccc4c(c3)CN(C)CC43CC3)nc2n1-c1cc(F)c(=O)n(C(C)C)c1 [Compound 318]	≤ 1000	≤ 30
CC(C)n1cc(-n2c3nc(Nc4ccc(N5CCN(C)CC5)cc4)ncc3c(=O)n2C(C)C)cc(F)c1=O [Compound 319]	≤ 1000	≤ 30
Cc1cc(Nc2ncc3c(=O)n(C(C)C)n(-c4cc(F)c(=O)n(C(C)C)c4)c3n2)ccc1N1CCN(C)CC1 [Compound 320]	≤ 1000	≤ 30
Cc1cc(Nc2ncc3c(=O)n(C(C)C)n(-c4cc(F)c(=O)n(C(C)C)c4)c3n2)ccc1C1CCN(C)CC1 [Compound 321]	≤ 1000	≤ 30
